Laboratory results as given in patent US10787452B2 (Vertex Pharmaceuticals Incorporated, priority 2012, dated 2020).

Each compound was assayed on HCT116 colorectal cancer cells (assay: Cisplatin sensitization assay (96 h cell viability MTS)). Details: 96 h MTS, compound plus Cisplatin.
Format: cell-based
Experimental: Compounds can be screened for their ability to sensitize HCT116 colorectal cancer cells to Cisplatin using a 96 h cell viability (MTS) assay. […] Compounds and Cisplatin are then both added simultaneously to the cell media in 2-fold serial dilutions from a top final concentration of 10 μM as a full matrix of concentrations in a final cell volume of 200 μl, and the cells are then incubated at 37° C. in 5% CO2. After 96 h, 40 μl of MTS reagent (Promega G358a) is added to each well and the cells are incubated for 1 h at 37° C. in 5% CO2.
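Also: compound concentration needed to lower the Cisplatin-alone IC50 by a set fold.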

Structure (SMILES)	Cisplatin Sensitization Assay
N#CCc1cnc2c(C(=O)Nc3cnccc3OC3CCNCC3)c(N)nn2c1 [I-O-84, 2-amino-6-(cyanomethyl)-N-(4-(piperidin-4-yloxy)pyridin-3-yl)pyrazolo[1,5-a]pyrimidine-3-carboxamide]	++ (Compounds with a Cisplatin sensitization value >0.02 μM but <0.2 μM are marked with “++.”)
Nc1nn2cc(F)cnc2c1C(=O)Nc1cnccc1C1CCOC1 (stereo not drawn) [I-C-75, 2-amino-6-fluoro-N-(4-(tetrahydrofuran-3-yl)pyridin-3-yl)pyrazolo[1,5-a]pyrimidine-3-carboxamide]	++ (Compounds with a Cisplatin sensitization value >0.02 μM but <0.2 μM are marked with “++.”)
Nc1nn2cc(F)cnc2c1C(=O)Nc1cnccc1N1CCN(C2CCOC2)CC1 (racemic) [I-N-19, (R,S)-2-amino-6-fluoro-N-(4-(4-(tetrahydrofuran-3-yl)piperazin-1-yl)pyridin-3-yl)pyrazolo[1,5-a]pyrimidine-3-carboxamide]	+++ (Compounds with a Cisplatin sensitization value of <0.02 μM are marked with “+++.”)
COCC1CN(c2ccncc2NC(=O)c2c(N)nn3cc(Cl)cnc23)CCN1C (stereo not drawn) [I-N-47, 2-amino-6-chloro-N-(4-(3-(methoxymethyl)-4-methylpiperazin-1-yl)pyridin-3-yl)pyrazolo[1,5-a]pyrimidine-3-carboxamide]	++ (Compounds with a Cisplatin sensitization value >0.02 μM but <0.2 μM are marked with “++.”)
CC(C)(O)C1CCN(c2ccncc2NC(=O)c2c(N)nn3cc(Cl)cnc23)CC1 [I-N-69, 2-amino-6-chloro-N-(4-(4-(2-hydroxypropan-2-yl)piperidin-1-yl)pyridin-3-yl)pyrazolo[1,5-a]pyrimidine-3-carboxamide]	+++ (Compounds with a Cisplatin sensitization value of <0.02 μM are marked with “+++.”)
Nc1nn2cc(F)cnc2c1C(=O)Nc1cncc(Cl)c1N1CCC(C(=O)N2CCN3CCC2C3)CC1 (stereo not drawn) [I-G-69, N-(4-(4-(1,4-diazabicyclo[3.2.1]octane-4-carbonyl)piperidin-1-yl)-5-chloropyridin-3-yl)-2-amino-6-fluoropyrazolo[1,5-a]pyrimidine-3-carboxamide]	+++ (Compounds with a Cisplatin sensitization value of <0.02 μM are marked with “+++.”)
Nc1nn2cc(F)cnc2c1C(=O)Nc1cnccc1O[C@H]1CCCN(C2COC2)C1 [I-O-9, (S)-2-amino-6-fluoro-N-(4-((1-(oxetan-3-yl)piperidin-3-yl)oxy)pyridin-3-yl)pyrazolo[1,5-a]pyrimidine-3-carboxamide]	++ (Compounds with a Cisplatin sensitization value >0.02 μM but <0.2 μM are marked with “++.”)
Nc1nn2cc(Cl)cnc2c1C(=O)Nc1cnccc1N1CCC(N2CCCC2)CC1 [I-N-105, 2-amino-6-chloro-N-(4-(4-(pyrrolidin-1-yl)piperidin-1-yl)pyridin-3-yl)pyrazolo[1,5-a]pyrimidine-3-carboxamide]	+++ (Compounds with a Cisplatin sensitization value of <0.02 μM are marked with “+++.”)
Nc1nn2cc(F)cnc2c1C(=O)Nc1cnccc1N1CCN2C(=O)CC[C@@H]2C1 [I-N-258, (R)-2-amino-6-fluoro-N-(4-(6-oxohexahydropyrrolo[1,2-a]pyrazin-2(1H)-yl)pyridin-3-yl)pyrazolo[1,5-a]pyrimidine-3-carboxamide]	++ (Compounds with a Cisplatin sensitization value >0.02 μM but <0.2 μM are marked with “++.”)
CC1(N2CCN(C(=O)C3CCN(c4c(F)cncc4NC(=O)c4c(N)nn5cc(F)cnc45)CC3)CC2)COC1 [I-G-92, 2-amino-6-fluoro-N-(5-fluoro-4-(4-(4-(3-methyloxetan-3-yl)piperazine-1-carbonyl)piperidin-1-yl)pyridin-3-yl)pyrazolo[1,5-a]pyrimidine-3-carboxamide]	+++ (Compounds with a Cisplatin sensitization value of <0.02 μM are marked with “+++.”)
Nc1nn2cc(F)cnc2c1C(=O)Nc1cnccc1N1CCOCC1 [I-N-141, 2-amino-6-fluoro-N-(4-morpholinopyridin-3-yl)pyrazolo[1,5-a]pyrimidine-3-carboxamide]	+++ (Compounds with a Cisplatin sensitization value of <0.02 μM are marked with “+++.”)
COc1ccncc1NC(=O)c1c(N)nn2cc(F)cnc12 [I-O-4, 2-amino-6-fluoro-N-(4-methoxypyridin-3-yl)pyrazolo[1,5-a]pyrimidine-3-carboxamide]	++ (Compounds with a Cisplatin sensitization value >0.02 μM but <0.2 μM are marked with “++.”)
Nc1nn2cc(F)cnc2c1C(=O)Nc1cncc(F)c1N1CCN([C@H]2CCOC2)CC1 [I-N-125, (S)-2-amino-6-fluoro-N-(5-fluoro-4-(4-(tetrahydrofuran-3-yl)piperazin-1-yl)pyridin-3-yl)pyrazolo[1,5-a]pyrimidine-3-carboxamide]	+++ (Compounds with a Cisplatin sensitization value of <0.02 μM are marked with “+++.”)
Nc1nn2cc(Cl)cnc2c1C(=O)Nc1cnccc1OCC(F)(F)F [I-O-59, 2-amino-6-chloro-N-(4-(2,2,2-trifluoroethoxy)pyridin-3-yl)pyrazolo[1,5-a]pyrimidine-3-carboxamide]	+++ (Compounds with a Cisplatin sensitization value of <0.02 μM are marked with “+++.”)
Nc1nn2cc(F)cnc2c1C(=O)Nc1cnccc1N1CCN(S(=O)(=O)C2CC2)CC1 [I-N-176, 2-amino-N-(4-(4-(cyclopropylsulfonyl)piperazin-1-yl)pyridin-3-yl)-6-fluoropyrazolo[1,5-a]pyrimidine-3-carboxamide]	+++ (Compounds with a Cisplatin sensitization value of <0.02 μM are marked with “+++.”)
Cc1nc(O[C@@H]2CCN(C)C2)ccc1-c1ccncc1NC(=O)c1c(N)nn2cc(F)cnc12 [I-C-41, (R)-2-amino-6-fluoro-N-(2-methyl-6-((1-methylpyrrolidin-3-yl)oxy)-[3,4′-bipyridin]-3′-yl)pyrazolo[1,5-a]pyrimidine-3-carboxamide]	+++ (Compounds with a Cisplatin sensitization value of <0.02 μM are marked with “+++.”)
Cc1ncn(-c2ccncc2NC(=O)c2c(N)nn3cc(F)cnc23)n1 [I-N-161, 2-amino-6-fluoro-N-(4-(3-methyl-1H-1,2,4-triazol-1-yl)pyridin-3-yl)pyrazolo[1,5-a]pyrimidine-3-carboxamide]	+ (Compounds with a Cisplatin sensitization value >0.2 μM but <5 μM are marked with “+.”)
Nc1nn2cc(F)cnc2c1C(=O)Nc1cnccc1N1CCN(C2CCOCC2)CC1 [I-N-11, 2-amino-6-fluoro-N-(4-(4-(tetrahydro-2H-pyran-4-yl)piperazin-1-yl)pyridin-3-yl)pyrazolo[1,5-a]pyrimidine-3-carboxamide]	++ (Compounds with a Cisplatin sensitization value >0.02 μM but <0.2 μM are marked with “++.”)
CC(C)N1CCN(c2ccncc2NC(=O)c2c(N)nn3cc(Cl)cnc23)CC1 [I-N-39, 2-amino-6-chloro-N-(4-(4-isopropylpiperazin-1-yl)pyridin-3-yl)pyrazolo[1,5-a]pyrimidine-3-carboxamide]	++ (Compounds with a Cisplatin sensitization value >0.02 μM but <0.2 μM are marked with “++.”)
Nc1nn2cc(F)cnc2c1C(=O)Nc1cnccc1-c1ccncc1 [I-C-24, N-([4,4′-bipyridin]-3-yl)-2-amino-6-fluoropyrazolo[1,5-a]pyrimidine-3-carboxamide]	+++ (Compounds with a Cisplatin sensitization value of <0.02 μM are marked with “+++.”)
Nc1nn2cc(Cl)cnc2c1C(=O)Nc1cnccc1N1CCCC(N)C1 (stereo not drawn) [I-N-55, 2-amino-N-(4-(3-aminopiperidin-1-yl)pyridin-3-yl)-6-chloropyrazolo[1,5-a]pyrimidine-3-carboxamide]	++ (Compounds with a Cisplatin sensitization value >0.02 μM but <0.2 μM are marked with “++.”)
Cc1cncn1-c1ccncc1NC(=O)c1c(N)nn2cc(F)cnc12 [I-N-283, 2-amino-6-fluoro-N-(4-(5-methyl-1H-imidazol-1-yl)pyridin-3-yl)pyrazolo[1,5-a]pyrimidine-3-carboxamide]	++ (Compounds with a Cisplatin sensitization value >0.02 μM but <0.2 μM are marked with “++.”)
Nc1nn2cc(F)cnc2c1C(=O)Nc1cncc(F)c1OC1CCN(C2COC2)CC1 [I-O-91, 2-amino-6-fluoro-N-(5-fluoro-4-((1-(oxetan-3-yl)piperidin-4-yl)oxy)pyridin-3-yl)pyrazolo[1,5-a]pyrimidine-3-carboxamide]	++ (Compounds with a Cisplatin sensitization value >0.02 μM but <0.2 μM are marked with “++.”)
Nc1nn2cc(Cl)cnc2c1C(=O)Nc1cnccc1O[C@H]1C[C@]2(CCN2)C1 [I-O-78, N-(4-((4s,6r)-1-azaspiro[3.3]heptan-6-yloxy)pyridin-3-yl)-2-amino-6-chloropyrazolo[1,5-a]pyrimidine-3-carboxamide]	+ (Compounds with a Cisplatin sensitization value >0.2 μM but <5 μM are marked with “+.”)
CN1CC(OC2CCN(c3ccncc3NC(=O)c3c(N)nn4cc(F)cnc34)CC2)C1 [I-N-164, 2-amino-6-fluoro-N-(4-(4-((1-methylazetidin-3-yl)oxy)piperidin-1-yl)pyridin-3-yl)pyrazolo[1,5-a]pyrimidine-3-carboxamide]	+++ (Compounds with a Cisplatin sensitization value of <0.02 μM are marked with “+++.”)
CN1CCN(C(=O)c2ccc(-c3c(F)cncc3NC(=O)c3c(N)nn4cc(F)cnc34)cc2)CC1 [I-C-43, 2-amino-6-fluoro-N-(5-fluoro-4-(4-(4-methylpiperazine-1-carbonyl)phenyl)pyridin-3-yl)pyrazolo[1,5-a]pyrimidine-3-carboxamide]	+++ (Compounds with a Cisplatin sensitization value of <0.02 μM are marked with “+++.”)
Nc1nn2cc(F)cnc2c1C(=O)Nc1cnccc1O[C@H]1CCCNC1 [I-O-85, (S)-2-amino-6-fluoro-N-(4-(piperidin-3-yloxy)pyridin-3-yl)pyrazolo[1,5-a]pyrimidine-3-carboxamide]	+++ (Compounds with a Cisplatin sensitization value of <0.02 μM are marked with “+++.”)
